A word on the IC50: it is the concentration that inhibits the measured activity by half.

This assay addresses T1, Recombinant Human SSAO/VAP-1/AOC3 (Homo sapiens, UniProt Q16853).
T1 construct: purchased R&D systems 3957-AO
T1 sequence (Q16853 1-763): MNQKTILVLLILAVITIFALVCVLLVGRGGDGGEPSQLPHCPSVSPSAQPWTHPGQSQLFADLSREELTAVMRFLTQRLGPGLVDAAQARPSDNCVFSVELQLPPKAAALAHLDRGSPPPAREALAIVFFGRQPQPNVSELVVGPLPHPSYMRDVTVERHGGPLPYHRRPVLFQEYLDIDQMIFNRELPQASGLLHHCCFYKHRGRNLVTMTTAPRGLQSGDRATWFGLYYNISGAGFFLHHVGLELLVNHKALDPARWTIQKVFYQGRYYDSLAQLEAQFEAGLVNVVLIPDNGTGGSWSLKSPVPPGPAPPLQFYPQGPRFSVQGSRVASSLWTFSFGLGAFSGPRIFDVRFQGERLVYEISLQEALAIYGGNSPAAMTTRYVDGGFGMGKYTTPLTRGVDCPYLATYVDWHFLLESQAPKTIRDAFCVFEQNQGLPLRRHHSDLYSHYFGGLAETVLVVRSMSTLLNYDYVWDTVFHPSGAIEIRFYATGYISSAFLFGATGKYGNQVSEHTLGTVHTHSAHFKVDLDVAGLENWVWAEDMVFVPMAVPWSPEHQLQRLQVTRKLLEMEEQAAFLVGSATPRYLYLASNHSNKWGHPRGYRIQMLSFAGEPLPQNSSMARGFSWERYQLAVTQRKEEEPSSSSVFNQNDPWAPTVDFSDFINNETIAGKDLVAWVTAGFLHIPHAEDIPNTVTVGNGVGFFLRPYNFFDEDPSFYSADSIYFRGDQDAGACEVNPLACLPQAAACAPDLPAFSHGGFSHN
Kind of assay: Human Semicarbazide-Sensitive Amine Oxidase (SSAO) Assay. To be noted: recombinant enzyme, 30 minutes preincubation at 37° C., benzylamine substrate, Amplex Ultra Red/HRP fluorescence. In kind it is biochemical. The essentials: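 Recombinant human SSAO/VAP-1 (2.5 μg/ml working stock in 50 mM HEPES) preincubated with compound 30 min at 37 °C over a 6-10 point CRC. Benzylamine substrate starts the reaction. H2O2 read kinetically over 30-120 min via Amplex Ultra Red/HRP fluorescence (ex 544/em 590 nm) to derive IC50.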
Take `CC1(NC(=O)C23CCC(c4ccc(OC/C(=C/F)CN)cc4)(CC2)CC3)CCCOC1` (stereo not shown) [Compound 2.65, (E)-4-(4-((2-(aminomethyl)-3-fluoroallyl)oxy)phenyl)-N-(3-methyltetrahydro-2H-pyran-3-yl)bicyclo[2.2.2]octane-1-carboxamide]: the IC50 is not above 10 nM.

Consider `NC/C(=C\F)COc1ccc(C23CCC(C(=O)NC4(C(F)(F)F)CCOCC4)(CC2)CC3)cc1` [Compound 2.152, (E)-4-(4-((2-(aminomethyl)-3-fluoroallyl)oxy)phenyl)-N-(4-(trifluoromethyl)tetrahydro-2H-pyran-4-yl)bicyclo[2.2.2]octane-1-carboxamide], for which the IC50 is 10 to 100 nM.

Take `NC/C(=C\F)COc1ccc(C23CCC(C(=O)NC4CCOC5(CCC5)C4)(CC2)CC3)cc1` (stereo not shown) [Compound 2.154, (E)-4-(4-((2-(aminomethyl)-3-fluoroallyl)oxy)phenyl)-N-(5-oxaspiro[3.5]nonan-8-yl)bicyclo[2.2.2]octane-1-carboxamide]: the IC50 was not above 10 nM.

Regarding `NC/C(=C\F)COc1ccc(C23CCC(c4nnc(C5CC5)o4)(CC2)CC3)cc1` [Compound 11.01, (E)-2-((4-(4-(5-cyclopropyl-1,3,4-oxadiazol-2-yl)bicyclo[2.2.2]octan-1-yl)phenoxy)methyl)-3-fluoroprop-2-en-1-amine], the IC50 is not above 10 nM.

The record behind these values is US20200181104A1, “SSAO INHIBITORS AND USES THEREOF” (METACRINE, INC., priority 2018, published 2020).
